TGI data for 23 compounds are collected here from PubChem BioAssay (NCI).

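How tested: cells in 96-well plates exposed to compound for 48 hours at five concentrations. TGI denotes the concentration required for complete inhibition of growth.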

Test systems include CCRF-CEM leukemia; DU-145 prostate; SK-MEL-2 melanoma; EKVX NSCLC; OVCAR-5 ovarian.
Holding throughout (assay): NCI tumour cell line growth inhibition, 48 h

In the case of `O=C(N/N=C1/C(=O)c2c3ccccc3cc3cccc1c23)c1ccccc1`, the TGI is above 100 µM in the test on CCRF-CEM leukemia; above 56.4 µM in the test on DU-145 prostate; above 94 µM with SK-MEL-2 melanoma; above 100 µM in the test on EKVX NSCLC; above 100 µM in the test with OVCAR-5 ovarian.
Regarding `CCNC(=O)c1c(O)c2ccccc2[nH]c1=O`, the TGI in the test with CCRF-CEM leukemia, in the test on DU-145 prostate, in the test on EKVX NSCLC and in the test on OVCAR-5 ovarian was above 100 µM in each case.
Turning to `CC(C)=CCC/C(C)=C/CC/C(C)=C/CC/C(=C/CC/C(C)=C\CC/C(C)=C/CC/C(C)=C/CC/C(C)=C/Cc1cc(O)ccc1O)CO`, the TGI is above 30.7 µM in the test with CCRF-CEM leukemia; above 100 µM in the test with DU-145 prostate; 11.5 µM in the test with SK-MEL-2 melanoma; 33.5 µM in the test on EKVX NSCLC; above 91.5 µM in the test with OVCAR-5 ovarian.
For `O=C1OC(=O)c2cc(S(=O)(=O)c3ccc4c(c3)C(=O)OC4=O)ccc21` the same measures were above 100 µM, above 100 µM, above 100 µM, above 100 µM and above 100 µM.
For `C=C1C(=O)O[C@@H]2C[C@]3(C)CC[C@]4(C)[C@H](CC[C@@H]5[C@@]6(C)CCC(=O)C(C)(C)[C@@H]6CC[C@]54C)[C@H]3[C@H]12` the same measures were 6.14 µM, 34.7 µM, 47.7 µM, 38 µM and 32.8 µM.
For `FC(F)(F)c1cccc(-c2nc3ccccc3c3c2[C@@]2(N4CCCC4)CCCC[C@@H]32)c1` the same measures were 87.9 µM, above 100 µM, 41.3 µM, above 100 µM and above 100 µM.
As to `CCOC(=O)CNc1nc(=O)c2c(=O)oc(Cl)cc2o1`, the TGI is 68.3 µM in the test on CCRF-CEM leukemia; above 100 µM with DU-145 prostate; 44.5 µM in the test with SK-MEL-2 melanoma; 29.6 µM with EKVX NSCLC; 38.7 µM with OVCAR-5 ovarian.
For `CC(=O)OC1COC(Nc2nc(NCc3ccccc3)n(C)c(=O)c2N=O)C(OC(C)=O)C1OC(C)=O` (stereo not given) the same measures were above 10 µM, above 10 µM, above 10 µM, above 10 µM and above 10 µM.
The like results for `Clc1ccc(C2Nc3ccccc3C3=NCCN32)cc1` (stereo not given) were, in that order, above 100 µM, above 100 µM, 41.3 µM, 93.7 µM and above 100 µM.
With `CC1=Nc2sc3c(c2C2=NCCN12)CCCC3`, the TGI in the test with DU-145 prostate was above 100 µM; in the test on SK-MEL-2 melanoma it was 84.5 µM; in the test on EKVX NSCLC, 94.1 µM; in the test on OVCAR-5 ovarian, 92 µM.
As to `CC(=O)N=C1N(/C=C2\C(=O)Oc3ccccc3C2=O)C(=O)/C(=C/c2ccc(NC(C)=O)cc2)N1C`, the TGI in the test with CCRF-CEM leukemia, in the test on DU-145 prostate, in the test on SK-MEL-2 melanoma, in the test with EKVX NSCLC and in the test on OVCAR-5 ovarian was above 100 µM in each case.
In the case of `CC1(C)C2CC(=O)C1(C)C(OCc1ccccc1)C2` (stereo not given), the TGI in the test on CCRF-CEM leukemia was 92.8 µM; in the test with DU-145 prostate it was above 100 µM; with SK-MEL-2 melanoma, above 100 µM; with EKVX NSCLC, above 100 µM; with OVCAR-5 ovarian, above 100 µM.
As for `C=C1C(=O)O[C@H]2[C@@H](O)[C@H](C)CCC[C@]3(C)O[C@H]3CC[C@@]3(C)O[C@@H]3C[C@@H]12`, the TGI was 5.22 µM with CCRF-CEM leukemia; 12.9 µM in the test on DU-145 prostate; 16.6 µM in the test on SK-MEL-2 melanoma; 11.3 µM in the test on EKVX NSCLC; 12.5 µM in the test with OVCAR-5 ovarian.
As to `O=C(Cc1ccccc1)Nn1c(-c2ccccc2)nc2ccccc2c1=O`, the TGI in the test on CCRF-CEM leukemia, in the test on DU-145 prostate, with EKVX NSCLC and in the test on OVCAR-5 ovarian was above 100 µM throughout.
With `CCOP(=O)(OCC)C(N)c1ccc(Cl)cc1` (stereo not given), the TGI with CCRF-CEM leukemia, in the test with DU-145 prostate, in the test with SK-MEL-2 melanoma, in the test with EKVX NSCLC and in the test on OVCAR-5 ovarian was above 100 µM in each case.
On to `Cc1noc(NC2=CC(=O)C(=O)c3ccccc32)c1C`, for which the TGI with DU-145 prostate was above 100 µM; in the test on SK-MEL-2 melanoma, 5.8 µM; in the test with EKVX NSCLC, above 100 µM; in the test on OVCAR-5 ovarian, above 100 µM.
`CCOC(=O)C(NC(=O)c1ccccc1)(N1CCOCC1)C(F)(F)F` (stereo not given): the TGI with CCRF-CEM leukemia, in the test with DU-145 prostate, in the test on SK-MEL-2 melanoma, in the test with EKVX NSCLC and in the test on OVCAR-5 ovarian was above 100 µM throughout.
Consider `O=C(NCc1cccc2ccccc12)N/N=C\c1ccc(Cl)cc1`, for which the TGI in the test with CCRF-CEM leukemia, with DU-145 prostate, with SK-MEL-2 melanoma, in the test on EKVX NSCLC and with OVCAR-5 ovarian was above 100 µM in each case.
Consider `COc1ccc(CN=C(N)N)c2ccccc12`, for which the TGI in the test with CCRF-CEM leukemia was above 100 µM; in the test with DU-145 prostate, above 100 µM; in the test with SK-MEL-2 melanoma, 86.9 µM; in the test on EKVX NSCLC, above 100 µM; in the test with OVCAR-5 ovarian, 73.4 µM.
For `O=C(O)Cc1ccc2[nH]c(O)c(C3=Nc4ccccc4C3=O)c2c1`, the TGI in the test with CCRF-CEM leukemia, in the test with DU-145 prostate, in the test with SK-MEL-2 melanoma, in the test on EKVX NSCLC and with OVCAR-5 ovarian was above 100 µM each time.
Regarding `O=C1c2cc(Cl)ccc2NC(=NCCCl)C2CSCN12` (stereo not given), the TGI in the test on CCRF-CEM leukemia, with DU-145 prostate, with SK-MEL-2 melanoma, with EKVX NSCLC and in the test with OVCAR-5 ovarian was above 100 µM throughout.
Regarding `COc1cc2cc(C(=O)N3CC(CCl)c4c3cc(N)c3ccccc43)[nH]c2c(OC)c1OC` (stereo not given), the TGI in the test with CCRF-CEM leukemia was below 0.01 µM; in the test on DU-145 prostate, 0.0549 µM; in the test with SK-MEL-2 melanoma, below 0.01 µM; in the test with EKVX NSCLC, below 0.01 µM.
As for `O=S(=O)(/N=C(\NO)Nc1ccc(Cl)cc1)c1cccc2nsnc12`, the TGI was 71.9 µM in the test with CCRF-CEM leukemia; above 100 µM with DU-145 prostate; 39.2 µM in the test on SK-MEL-2 melanoma; 66 µM in the test with EKVX NSCLC; 75.5 µM in the test on OVCAR-5 ovarian.
